Read-outs that look alike come from different tables or passages of the source.
System: Wheat and Barley and weed species
Assay: Post-Emergent Test III: postemergent herbicidal activity in wheat and barley, visual rating after 21 d and probit GR20/GR50/GR80/GR90 (Tables 9-13)
Type: in vivo
Details: for pest or weed control at 35 g/ha / pest or weed control at 70 g/ha / pest or weed control at 140 g/ha: post-emergence, 504 h
In short: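 Greenhouse plants (~18/17 °C, 14 h photoperiod) at second–third true leaf stage sprayed at 187 L/ha with a high rate and ½× to 1/16× serial dilutions. Visual injury 0–100% versus solvent-blank controls scored at 21 d; GR20, GR50, GR80 and GR90 derived by probit analysis across rates.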

SMILES: Nc1cc(-c2cc3c(cc2F)OC(F)(F)O3)nc(C(=O)O)c1Cl [Compound 42]
- GR50 ALOMY (ALOMY black-grass (Alopecurus myosuroides), growth reduction of 50%, probit analysis): 11 g ai/ha
- GR80 ALOMY (ALOMY black-grass (Alopecurus myosuroides), growth reduction of 80%, probit analysis): 25 g ai/ha
- GR90 ALOMY (ALOMY black-grass (Alopecurus myosuroides), growth reduction of 90%, probit analysis): 40 g ai/ha
- GR50 APESV (APESV bentgrass (Apera spica-venti), growth reduction of 50%, probit analysis): 22 g ai/ha
- GR80 APESV (APESV bentgrass (Apera spica-venti), growth reduction of 80%, probit analysis): 81 g ai/ha
- GR90 APESV (APESV bentgrass (Apera spica-venti), growth reduction of 90%, probit analysis): >140 g ai/ha
- GR20 HORVS (HORVS barley, spring (crop), growth reduction of 20%, probit analysis): 0.50 g ai/ha
- pest or weed control at 35 g/ha (Hordeum vulgare, HORVS barley, spring (crop), 35 g ai/ha, read-out: Visual Growth Reduction (%) 21 Days After Application HORVS): 75 to 84%
- pest or weed control at 70 g/ha (Hordeum vulgare, HORVS barley, spring (crop), 70 g ai/ha, read-out: Visual Growth Reduction (%) 21 Days After Application HORVS): 85 to 94%
- pest or weed control at 140 g/ha (Hordeum vulgare, HORVS barley, spring (crop), 140 g ai/ha, read-out: Visual Growth Reduction (%) 21 Days After Application HORVS): 85 to 94%
- Visual Growth Reduction (%) 21 Days After Application KCHSC (KCHSC kochia (Kochia scoparia), 35 g ai/ha): E (45-59)
- Visual Growth Reduction (%) 21 Days After Application KCHSC (KCHSC kochia (Kochia scoparia), 70 g ai/ha): E (45-59)
- Visual Growth Reduction (%) 21 Days After Application KCHSC (KCHSC kochia (Kochia scoparia), 140 g ai/ha): D (60-74)
- GR50 KCHSC (KCHSC kochia (Kochia scoparia), growth reduction of 50%, probit analysis): 54 g ai/ha
- GR80 KCHSC (KCHSC kochia (Kochia scoparia), growth reduction of 80%, probit analysis): >140 g ai/ha
- GR90 KCHSC (KCHSC kochia (Kochia scoparia), growth reduction of 90%, probit analysis): >140 g ai/ha
- GR50 LOLSS (LOLSS ryegrass, growth reduction of 50%, probit analysis): 44 g ai/ha
- GR80 LOLSS (LOLSS ryegrass, growth reduction of 80%, probit analysis): >140 g ai/ha
- GR90 LOLSS (LOLSS ryegrass, growth reduction of 90%, probit analysis): >140 g ai/ha
- GR50 SETVI (SETVI green foxtail (Setaria viridis), growth reduction of 50%, probit analysis): 10 g ai/ha
- GR80 SETVI (SETVI green foxtail (Setaria viridis), growth reduction of 80%, probit analysis): 46 g ai/ha
- GR90 SETVI (SETVI green foxtail (Setaria viridis), growth reduction of 90%, probit analysis): >140 g ai/ha
- GR20 TRZAS (TRZAS wheat, spring (crop), growth reduction of 20%, probit analysis): 0.20 g ai/ha
- pest or weed control at 35 g/ha (Triticum aestivum, TRZAS wheat, spring (crop), 35 g ai/ha, read-out: Visual Growth Reduction (%) 21 Days After Application TRZAS): 75 to 84%
- pest or weed control at 70 g/ha (Triticum aestivum, TRZAS wheat, spring (crop), 70 g ai/ha, read-out: Visual Growth Reduction (%) 21 Days After Application TRZAS): 75 to 84%
- pest or weed control at 140 g/ha (Triticum aestivum, TRZAS wheat, spring (crop), 140 g ai/ha, read-out: Visual Growth Reduction (%) 21 Days After Application TRZAS): 85 to 94%
- pest or weed control at 35 g/ha (ALOMY black-grass (Alopecurus myosuroides), 35 g ai/ha, read-out: Visual Growth Reduction (%) 21 Days After Application ALOMY): 85 to 94%
- pest or weed control at 70 g/ha (ALOMY black-grass (Alopecurus myosuroides), 70 g ai/ha, read-out: Visual Growth Reduction (%) 21 Days After Application ALOMY): 95 to 100%
- pest or weed control at 140 g/ha (ALOMY black-grass (Alopecurus myosuroides), 140 g ai/ha, read-out: Visual Growth Reduction (%) 21 Days After Application ALOMY): 95 to 100%
- pest or weed control at 35 g/ha (APESV bentgrass (Apera spica-venti), 35 g ai/ha, read-out: Visual Growth Reduction (%) 21 Days After Application APESV): 60 to 74%
- pest or weed control at 70 g/ha (APESV bentgrass (Apera spica-venti), 70 g ai/ha, read-out: Visual Growth Reduction (%) 21 Days After Application APESV): 75 to 84%
- pest or weed control at 140 g/ha (APESV bentgrass (Apera spica-venti), 140 g ai/ha, read-out: Visual Growth Reduction (%) 21 Days After Application APESV): 85 to 94%
- pest or weed control at 35 g/ha (LOLSS ryegrass, 35 g ai/ha, read-out: Visual Growth Reduction (%) 21 Days After Application LOLSS): 45 to 59%
- pest or weed control at 70 g/ha (LOLSS ryegrass, 70 g ai/ha, read-out: Visual Growth Reduction (%) 21 Days After Application LOLSS): 60 to 74%
- pest or weed control at 140 g/ha (LOLSS ryegrass, 140 g ai/ha, read-out: Visual Growth Reduction (%) 21 Days After Application LOLSS): 60 to 74%
- pest or weed control at 35 g/ha (SETVI green foxtail (Setaria viridis), 35 g ai/ha, read-out: Visual Growth Reduction (%) 21 Days After Application SETVI): 75 to 84%
- pest or weed control at 70 g/ha (SETVI green foxtail (Setaria viridis), 70 g ai/ha, read-out: Visual Growth Reduction (%) 21 Days After Application SETVI): 85 to 94%
- pest or weed control at 140 g/ha (SETVI green foxtail (Setaria viridis), 140 g ai/ha, read-out: Visual Growth Reduction (%) 21 Days After Application SETVI): 95 to 100%

Source: patent US9149038B2, “4-amino-6-(heterocyclic)picolinates and 6-amino-2-(heterocyclic)pyrimidine-4-carboxylates and their use as herbicides” (Dow AgroSciences LLC, priority 2013, dated 2015)
